Test results: patent US10131652B2, “Pyrimidinyloxy benzene derivatives as herbicides” (E. I. DU PONT DE NEMOURS AND COMPANY, priority 2014, dated 2018)
Where two headings read alike, the source gives them in different places.

Tests used:
Assay in all cases: Test E pre-/postemergence plant response
Type in all cases: in vivo
[1] = tested on: field poppy (Papaver rhoeas); conditions: scale 0 to 100, read-out: Plant response rating, Field Poppy; for pest or weed control at 16 g/ha: 16 g ai/ha; for pest or weed control at 31 g/ha: 31 g ai/ha; for pest or weed control at 62 g/ha: 62 g ai/ha; for pest or weed control at 125 g/ha: 125 g ai/ha
In short: (§1)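 Visual scores on a 0–100 scale (100 = complete control) were assigned against untreated controls 7–21 days after treatment in a controlled environment. Compounds, formulated with solvent plus surfactant, were applied to pre-emergence silt-loam sowings or to 1- to 4-leaf plants (2–18 cm) in potting medium.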

[2] = tested on: windgrass (Apera spica-venti); conditions: scale 0 to 100, read-out: Plant response rating, Windgrass; for pest or weed control at 16 g/ha: 16 g ai/ha; for pest or weed control at 62 g/ha: 62 g ai/ha; for pest or weed control at 125 g/ha: 125 g ai/ha
In short: as §1

[3] = tested on: winter barley (Hordeum vulgare); conditions: scale 0 to 100, read-out: Plant response rating, Barley, Winter; for plant injury at 16 g/ha: 16 g ai/ha; for plant injury at 31 g/ha: 31 g ai/ha; for plant injury at 62 g/ha: 62 g ai/ha; for plant injury at 125 g/ha: 125 g ai/ha
In short: as §1

[4] = tested on: speedwell (bird's-eye speedwell, Veronica persica); conditions: scale 0 to 100, read-out: Plant response rating, Speedwell; for pest or weed control at 16 g/ha: 16 g ai/ha; for pest or weed control at 62 g/ha: 62 g ai/ha; for pest or weed control at 125 g/ha: 125 g ai/ha
In short: as §1

[5] = tested on: chickweed (common chickweed, Stellaria media); conditions: scale 0 to 100, read-out: Plant response rating, Chickweed; for pest or weed control at 16 g/ha: 16 g ai/ha; for pest or weed control at 31 g/ha: 31 g ai/ha; for pest or weed control at 62 g/ha: 62 g ai/ha; for pest or weed control at 125 g/ha: 125 g ai/ha
In short: as §1

[6] = tested on: wild buckwheat (Polygonum convolvulus); conditions: Fallopia convolvulus, scale 0 to 100, read-out: Plant response rating, Buckwheat, Wild; for pest or weed control at 16 g/ha: 16 g ai/ha; for pest or weed control at 31 g/ha: 31 g ai/ha; for pest or weed control at 62 g/ha: 62 g ai/ha; for pest or weed control at 125 g/ha: 125 g ai/ha
In short: as §1

[7] = tested on: kochia (Kochia scoparia); conditions: Bassia scoparia, scale 0 to 100, read-out: Plant response rating, Kochia; for pest or weed control at 16 g/ha: 16 g ai/ha; for pest or weed control at 31 g/ha: 31 g ai/ha; for pest or weed control at 62 g/ha: 62 g ai/ha; for pest or weed control at 125 g/ha: 125 g ai/ha
In short: as §1

[8] = tested on: pigweed (Amaranthus retroflexus); conditions: scale 0 to 100, read-out: Plant response rating, Pigweed; for pest or weed control at 16 g/ha: 16 g ai/ha; for pest or weed control at 31 g/ha: 31 g ai/ha; for pest or weed control at 62 g/ha: 62 g ai/ha; for pest or weed control at 125 g/ha: 125 g ai/ha
In short: as §1

[9] = tested on: canarygrass (Phalaris minor); conditions: scale 0 to 100, read-out: Plant response rating, Canarygrass; for pest or weed control at 16 g/ha: 16 g ai/ha; for pest or weed control at 31 g/ha: 31 g ai/ha; for pest or weed control at 62 g/ha: 62 g ai/ha; for pest or weed control at 125 g/ha: 125 g ai/ha
In short: as §1

[10] = tested on: spring barley (Hordeum vulgare); conditions: for plant injury at 16 g/ha: 16 g ai/ha; for plant injury at 31 g/ha: 31 g ai/ha; for plant injury at 62 g/ha: 62 g ai/ha; for plant injury at 125 g/ha: 125 g ai/ha
In short: as §1

[11] = tested on: downy bromegrass (Bromus tectorum); conditions: scale 0 to 100, read-out: Plant response rating, Bromegrass, Downy; for pest or weed control at 16 g/ha: 16 g ai/ha; for pest or weed control at 31 g/ha: 31 g ai/ha; for pest or weed control at 62 g/ha: 62 g ai/ha; for pest or weed control at 125 g/ha: 125 g ai/ha
In short: as §1

[12] = post-emergence, 31 g ai/ha, Postemergence
[13] = post-emergence, Postemergence, scale 0 to 100, read-out: Plant response rating, Barley, Spring
[14] = pre-emergence, Preemergence, scale 0 to 100, read-out: Plant response rating, Barley, Spring

**Q.** What does the source list for `Fc1cccc(Oc2ncc(Cl)cn2)c1-c1cc(C(F)F)on1` [Compound 55, 5-chloro-2-[2-[5-(difluoromethyl)-3-isoxazolyl]-3-fluorophenoxy]pyrimidine]?
**A.** pest or weed control at 16 g/ha ([1]; post-emergence, Postemergence): 85%; pest or weed control at 31 g/ha ([1]; post-emergence, Postemergence): 90%; pest or weed control at 62 g/ha ([1]; post-emergence, Postemergence): 100%; pest or weed control at 125 g/ha ([1]; post-emergence, Postemergence): 95%; pest or weed control at 16 g/ha ([1]; pre-emergence, Preemergence): 100%; pest or weed control at 31 g/ha ([1]; pre-emergence, Preemergence): 100%; pest or weed control at 62 g/ha ([1]; pre-emergence, Preemergence): 100%; pest or weed control at 125 g/ha ([1]; pre-emergence, Preemergence): 100%; pest or weed control at 16 g/ha ([2]; post-emergence, Postemergence): 5%; pest or weed control at 31 g/ha [2, 12]: 10%; pest or weed control at 62 g/ha ([2]; post-emergence, Postemergence): 25%; pest or weed control at 125 g/ha ([2]; post-emergence, Postemergence): 40%; pest or weed control at 16 g/ha ([2]; pre-emergence, Preemergence): 5%; pest or weed control at 62 g/ha ([2]; pre-emergence, Preemergence): 100%; pest or weed control at 125 g/ha ([2]; pre-emergence, Preemergence): 100%; plant injury at 16 g/ha ([3]; post-emergence, Postemergence): 0%; plant injury at 31 g/ha ([3]; post-emergence, Postemergence): 0%; plant injury at 62 g/ha ([3]; post-emergence, Postemergence): 5%; plant injury at 125 g/ha ([3]; post-emergence, Postemergence): 10%; plant injury at 16 g/ha ([3]; pre-emergence, Preemergence): 5%; plant injury at 31 g/ha ([3]; pre-emergence, Preemergence): 10%; plant injury at 62 g/ha ([3]; pre-emergence, Preemergence): 10%; plant injury at 125 g/ha ([3]; pre-emergence, Preemergence): 35%; pest or weed control at 16 g/ha ([4]; post-emergence, Postemergence): 75%; pest or weed control at 31 g/ha [4, 12]: 80%; pest or weed control at 62 g/ha ([4]; post-emergence, Postemergence): 100%; pest or weed control at 125 g/ha ([4]; post-emergence, Postemergence): 100%; pest or weed control at 16 g/ha ([4]; pre-emergence, Preemergence): 100%; pest or weed control at 62 g/ha ([4]; pre-emergence, Preemergence): 100%; pest or weed control at 125 g/ha ([4]; pre-emergence, Preemergence): 100%; pest or weed control at 16 g/ha ([5]; post-emergence, Postemergence): 55%; pest or weed control at 31 g/ha ([5]; post-emergence, Postemergence): 55%; pest or weed control at 62 g/ha ([5]; post-emergence, Postemergence): 70%; pest or weed control at 125 g/ha ([5]; post-emergence, Postemergence): 70%; pest or weed control at 16 g/ha ([5]; pre-emergence, Preemergence): 65%; pest or weed control at 31 g/ha ([5]; pre-emergence, Preemergence): 100%; pest or weed control at 62 g/ha ([5]; pre-emergence, Preemergence): 100%; pest or weed control at 125 g/ha ([5]; pre-emergence, Preemergence): 100%; pest or weed control at 16 g/ha ([6]; post-emergence, Postemergence): 65%; pest or weed control at 31 g/ha ([6]; post-emergence, Postemergence): 95%; pest or weed control at 62 g/ha ([6]; post-emergence, Postemergence): 95%; pest or weed control at 125 g/ha ([6]; post-emergence, Postemergence): 95%; pest or weed control at 16 g/ha ([6]; pre-emergence, Preemergence): 65%; pest or weed control at 31 g/ha ([6]; pre-emergence, Preemergence): 100%; pest or weed control at 62 g/ha ([6]; pre-emergence, Preemergence): 100%; pest or weed control at 125 g/ha ([6]; pre-emergence, Preemergence): 100%; pest or weed control at 16 g/ha ([7]; post-emergence, Postemergence): 65%; pest or weed control at 31 g/ha ([7]; post-emergence, Postemergence): 70%; pest or weed control at 62 g/ha ([7]; post-emergence, Postemergence): 85%; pest or weed control at 125 g/ha ([7]; post-emergence, Postemergence): 85%; pest or weed control at 16 g/ha ([7]; pre-emergence, Preemergence): 55%; pest or weed control at 31 g/ha ([7]; pre-emergence, Preemergence): 100%; pest or weed control at 62 g/ha ([7]; pre-emergence, Preemergence): 100%; pest or weed control at 125 g/ha ([7]; pre-emergence, Preemergence): 100%; pest or weed control at 16 g/ha ([8]; post-emergence, Postemergence): 85%; pest or weed control at 31 g/ha ([8]; post-emergence, Postemergence): 90%; pest or weed control at 62 g/ha ([8]; post-emergence, Postemergence): 95%; pest or weed control at 125 g/ha ([8]; post-emergence, Postemergence): 95%; pest or weed control at 16 g/ha ([8]; pre-emergence, Preemergence): 75%; pest or weed control at 31 g/ha ([8]; pre-emergence, Preemergence): 100%; pest or weed control at 62 g/ha ([8]; pre-emergence, Preemergence): 100%; pest or weed control at 125 g/ha ([8]; pre-emergence, Preemergence): 100%; pest or weed control at 16 g/ha ([9]; post-emergence, Postemergence): 10%; pest or weed control at 31 g/ha ([9]; post-emergence, Postemergence): 20%; pest or weed control at 62 g/ha ([9]; post-emergence, Postemergence): 30%; pest or weed control at 125 g/ha ([9]; post-emergence, Postemergence): 30%; pest or weed control at 16 g/ha ([9]; pre-emergence, Preemergence): 10%; pest or weed control at 31 g/ha ([9]; pre-emergence, Preemergence): 20%; pest or weed control at 62 g/ha ([9]; pre-emergence, Preemergence): 100%; pest or weed control at 125 g/ha ([9]; pre-emergence, Preemergence): 100%; plant injury at 16 g/ha [10, 13]: 10%; plant injury at 31 g/ha [10, 13]: 10%; plant injury at 62 g/ha [10, 13]: 15%; plant injury at 125 g/ha ([10]; post-emergence, Postemergence, scale 0 to 100 (0 no effect, 100 complete control), read-out: Plant response rating, Barley, Spring): 20%; plant injury at 16 g/ha [10, 14]: 10%; plant injury at 31 g/ha [10, 14]: 10%; plant injury at 62 g/ha [10, 14]: 45%; plant injury at 125 g/ha [10, 14]: 50%; pest or weed control at 16 g/ha ([11]; post-emergence, Postemergence): 5%; pest or weed control at 31 g/ha ([11]; post-emergence, Postemergence): 0%; pest or weed control at 62 g/ha ([11]; post-emergence, Postemergence): 10%; pest or weed control at 125 g/ha ([11]; post-emergence, Postemergence): 10%; pest or weed control at 16 g/ha ([11]; pre-emergence, Preemergence): 20%; pest or weed control at 31 g/ha ([11]; pre-emergence, Preemergence): 20%; pest or weed control at 62 g/ha ([11]; pre-emergence, Preemergence): 55%; pest or weed control at 125 g/ha ([11]; pre-emergence, Preemergence): 55%
